# Assay results from PubChem BioAssay AID1259407 (Chemical Carcinogenesis Research Information System (CCRIS), 2018).
# The source made the active and inactive calls. No rule for the calls is given here.
# Test system: CCRIS mutagenicity, Ames/micronucleus/aberration tests
# Assay: CCRIS mutagenicity studies
# [1] = Test System: AMES SALMONELLA TYPHIMURIUM, Strain/Indicator: TA97, Metabolic Activation: NONE, Method: PREINCUBATION
# [2] = Test System: AMES SALMONELLA TYPHIMURIUM, Strain/Indicator: TA98, Metabolic Activation: NONE, Method: PREINCUBATION
# [3] = Test System: AMES SALMONELLA TYPHIMURIUM, Strain/Indicator: TA100, Metabolic Activation: NONE, Method: PREINCUBATION
# [4] = Test System: AMES SALMONELLA TYPHIMURIUM, Strain/Indicator: TA102, Metabolic Activation: NONE, Method: PREINCUBATION
# [5] = Test System: AMES SALMONELLA TYPHIMURIUM, Strain/Indicator: TA1535, Metabolic Activation: NONE, Method: PREINCUBATION
# [6] = Test System: AMES SALMONELLA TYPHIMURIUM, Strain/Indicator: TA1537, Metabolic Activation: NONE, Method: PREINCUBATION
# [7] = Test System: AMES SALMONELLA TYPHIMURIUM, Strain/Indicator: TA100, Metabolic Activation: RAT, LIVER, S-9, AROCLOR 1254, Method: STANDARD PLATE
structure (smiles),measurement,setting,value
O=S(=O)(O)OOS(=O)(=O)O,mutagenic call,[1],inactive; negative
same,mutagenic call,"Test System: AMES SALMONELLA TYPHIMURIUM, Strain/Indicator: TA97, Metabolic Activation: RAT, LIVER, S-9, AROCLOR 1254, Method: PREINCUBATION",inactive; negative
same,mutagenic call,[2],inactive; negative
same,mutagenic call,"Test System: AMES SALMONELLA TYPHIMURIUM, Strain/Indicator: TA98, Metabolic Activation: RAT, LIVER, S-9, KC 500, Method: PREINCUBATION",inactive; negative
same,mutagenic call,[3],inactive; negative
same,mutagenic call,"Test System: AMES SALMONELLA TYPHIMURIUM, Strain/Indicator: TA100, Metabolic Activation: RAT, LIVER, S-9, KC 500, Method: PREINCUBATION",inactive; negative
same,mutagenic call,[4],inactive; negative
same,mutagenic call,"Test System: AMES SALMONELLA TYPHIMURIUM, Strain/Indicator: TA102, Metabolic Activation: RAT, LIVER, S-9, AROCLOR 1254, Method: PREINCUBATION",inactive; negative
same,mutagenic call,[5],inactive; negative
same,mutagenic call,"Test System: AMES SALMONELLA TYPHIMURIUM, Strain/Indicator: TA1535, Metabolic Activation: RAT, LIVER, S-9, KC 500, Method: PREINCUBATION",inactive; negative
same,mutagenic call,[6],inactive; negative
same,mutagenic call,"Test System: AMES SALMONELLA TYPHIMURIUM, Strain/Indicator: TA1537, Metabolic Activation: RAT, LIVER, S-9, KC 500, Method: PREINCUBATION",inactive; negative
same,mutagenic call,"Test System: AMES SALMONELLA TYPHIMURIUM, Strain/Indicator: TA1538, Metabolic Activation: NONE, Method: PREINCUBATION",inactive; negative
same,mutagenic call,"Test System: AMES SALMONELLA TYPHIMURIUM, Strain/Indicator: TA1538, Metabolic Activation: RAT, LIVER, S-9, KC 500, Method: PREINCUBATION",inactive; negative
same,mutagenic call,"Test System: E. COLI, Strain/Indicator: WP2 UVRA, Metabolic Activation: NONE, Method: PREINCUBATION",inactive; negative
same,mutagenic call,"Test System: E. COLI, Strain/Indicator: WP2 UVRA, Metabolic Activation: RAT, LIVER, S-9, KC 500, Method: PREINCUBATION",inactive; negative
COc1ccc(O)c2c(=O)c3c(OC)cc4c(c3oc12)[C@@H]1C=CO[C@@H]1O4,mutagenic call,"Test System: AMES SALMONELLA TYPHIMURIUM, Strain/Indicator: TA98, Metabolic Activation: RAT, LIVER, S-9, PHENOBARBITAL, Method: STANDARD PLATE",inactive; negative
same,mutagenic call,"Test System: AMES SALMONELLA TYPHIMURIUM, Strain/Indicator: TA100, Metabolic Activation: RAT, LIVER, S-9, PHENOBARBITAL, Method: STANDARD PLATE",active; positive
COP(=S)(OC)Oc1nc(Cl)c(Cl)cc1Cl,mutagenic call,"Test System: AMES SALMONELLA TYPHIMURIUM, Strain/Indicator: TA98, Metabolic Activation: NONE",inactive; negative
same,mutagenic call,"Test System: AMES SALMONELLA TYPHIMURIUM, Strain/Indicator: TA98, Metabolic Activation: RAT, LIVER, S-9, AROCLOR 1254",inactive; negative
same,mutagenic call,"Test System: AMES SALMONELLA TYPHIMURIUM, Strain/Indicator: TA100, Metabolic Activation: NONE",inactive; negative
same,mutagenic call,"Test System: AMES SALMONELLA TYPHIMURIUM, Strain/Indicator: TA100, Metabolic Activation: RAT, LIVER, S-9, AROCLOR 1254",inactive; negative
same,mutagenic call,"Test System: AMES SALMONELLA TYPHIMURIUM, Strain/Indicator: TA102, Metabolic Activation: NONE",inactive; negative
same,mutagenic call,"Test System: AMES SALMONELLA TYPHIMURIUM, Strain/Indicator: TA102, Metabolic Activation: RAT, LIVER, S-9, AROCLOR 1254",inactive; negative
same,mutagenic call,"Test System: AMES SALMONELLA TYPHIMURIUM, Strain/Indicator: TA1535, Metabolic Activation: NONE",inactive; negative
same,mutagenic call,"Test System: AMES SALMONELLA TYPHIMURIUM, Strain/Indicator: TA1535, Metabolic Activation: RAT, LIVER, S-9, AROCLOR 1254",inactive; negative
same,mutagenic call,"Test System: AMES SALMONELLA TYPHIMURIUM, Strain/Indicator: TA1537, Metabolic Activation: NONE",inactive; negative
same,mutagenic call,"Test System: AMES SALMONELLA TYPHIMURIUM, Strain/Indicator: TA1537, Metabolic Activation: RAT, LIVER, S-9, AROCLOR 1254",inactive; negative
COc1ccc(C(=O)[C@@H]2O[C@@H]2c2ccccc2)cc1,mutagenic call,"Test System: AMES SALMONELLA TYPHIMURIUM, Strain/Indicator: TA98, Metabolic Activation: NONE, Method: STANDARD PLATE",inactive; negative
same,mutagenic call,"Test System: AMES SALMONELLA TYPHIMURIUM, Strain/Indicator: TA98, Metabolic Activation: RAT, LIVER, S-9, AROCLOR 1254, Method: STANDARD PLATE",inactive; negative
same,mutagenic call,"Test System: AMES SALMONELLA TYPHIMURIUM, Strain/Indicator: TA100, Metabolic Activation: NONE, Method: STANDARD PLATE",inactive; negative
same,mutagenic call,[7],inactive; negative
Cc1c2ccccc2c(COS(=O)(=O)O)c2ccc3ccccc3c12,mutagenic call,[2],active; positive
C[15NH][15N]=O,mutagenic call,"Test System: AMES SALMONELLA TYPHIMURIUM, Strain/Indicator: TA1535, Metabolic Activation: NONE, Method: STANDARD PLATE",active; positive
same,mutagenic call,"Test System: E. COLI, Strain/Indicator: WP2, Metabolic Activation: NONE, Method: STANDARD PLATE",active; positive
same,mutagenic call,"Test System: E. COLI, Strain/Indicator: WP2 UVRA, Metabolic Activation: NONE, Method: STANDARD PLATE",active; positive
Nc1ccc(Sc2ccc(N)cc2)cc1,mutagenic call,"Test System: AMES SALMONELLA TYPHIMURIUM, Strain/Indicator: TA97, Metabolic Activation: HAMSTER, LIVER, S-9, AROCLOR 1254 (10%), Method: PREINCUBATION",active; positive
same,mutagenic call,[1],inactive; negative
same,mutagenic call,"Test System: AMES SALMONELLA TYPHIMURIUM, Strain/Indicator: TA97, Metabolic Activation: RAT, LIVER, S-9, AROCLOR 1254 (10%), Method: PREINCUBATION",active; positive
same,mutagenic call,"Test System: AMES SALMONELLA TYPHIMURIUM, Strain/Indicator: TA98, Metabolic Activation: HAMSTER, LIVER, S-9, AROCLOR 1254 (10%), Method: PREINCUBATION",active; positive
same,mutagenic call,[2],inactive; negative
same,mutagenic call,"Test System: AMES SALMONELLA TYPHIMURIUM, Strain/Indicator: TA98, Metabolic Activation: RAT, LIVER, S-9, AROCLOR 1254 (10%), Method: PREINCUBATION",active; positive
same,mutagenic call,"Test System: AMES SALMONELLA TYPHIMURIUM, Strain/Indicator: TA98, Metabolic Activation: RAT, LIVER, S-9, PCB, Method: PREINCUBATION",active; positive
same,mutagenic call,"Test System: AMES SALMONELLA TYPHIMURIUM, Strain/Indicator: TA100, Metabolic Activation: HAMSTER, LIVER, S-9, AROCLOR 1254 (10%), Method: PREINCUBATION",active; positive
same,mutagenic call,[3],active; positive
same,mutagenic call,"Test System: AMES SALMONELLA TYPHIMURIUM, Strain/Indicator: TA100, Metabolic Activation: RAT, LIVER, S-9, AROCLOR 1254 (10%), Method: PREINCUBATION",active; positive
same,mutagenic call,"Test System: AMES SALMONELLA TYPHIMURIUM, Strain/Indicator: TA100, Metabolic Activation: RAT, LIVER, S-9, PCB, Method: PREINCUBATION",active; positive
same,mutagenic call,"Test System: AMES SALMONELLA TYPHIMURIUM, Strain/Indicator: TA1535, Metabolic Activation: HAMSTER, LIVER, S-9, AROCLOR 1254 (10%), Method: PREINCUBATION",inactive; negative
same,mutagenic call,[5],inactive; negative
same,mutagenic call,"Test System: AMES SALMONELLA TYPHIMURIUM, Strain/Indicator: TA1535, Metabolic Activation: RAT, LIVER, S-9, AROCLOR 1254 (10%), Method: PREINCUBATION",inactive; negative
same,mutagenic call,"Test System: AMES SALMONELLA TYPHIMURIUM, Strain/Indicator: TA1537, Metabolic Activation: HAMSTER, LIVER, S-9, AROCLOR 1254 (10%), Method: PREINCUBATION",inactive; negative
same,mutagenic call,[6],inactive; negative
same,mutagenic call,"Test System: AMES SALMONELLA TYPHIMURIUM, Strain/Indicator: TA1537, Metabolic Activation: RAT, LIVER, S-9, AROCLOR 1254 (10%), Method: PREINCUBATION",inactive; negative
Cc1ccc2nc3c(ccc4ccccc43)cc2c1,mutagenic call,"Test System: AMES SALMONELLA TYPHIMURIUM, Strain/Indicator: TA97A, Metabolic Activation: NONE, Method: PREINCUBATION",inactive; negative
same,mutagenic call,[2],inactive; negative
same,mutagenic call,[3],active; positive
same,mutagenic call,[4],active; positive
Cc1ccc2nc3c4c(ccc3c(CO)c2c1)[C@H](O)[C@@H](O)C=C4,mutagenic call,[7],active; positive
